According to patent US6861429B2, “2,3-diaryl-pyrazolo[1,5-b]pyridazines derivatives, their preparation and their use as cyclooxygenase 2 (COX-2) inhibitors” (SmithKline Beecham Corporation, priority 1997, dated 2005):

Assays:
human COX-2 = biological target: T1, human COX-2 (Homo sapiens, UniProt P35354); test: Inhibition of PGE2 release in COS cells stably transfected with human COX-2; format: cell-based; details: 30 μM arachidonic acid, PGE2 release by enzyme immunoassay
T1 construct: expressed in transfected cells
T1 sequence (P35354 18-604): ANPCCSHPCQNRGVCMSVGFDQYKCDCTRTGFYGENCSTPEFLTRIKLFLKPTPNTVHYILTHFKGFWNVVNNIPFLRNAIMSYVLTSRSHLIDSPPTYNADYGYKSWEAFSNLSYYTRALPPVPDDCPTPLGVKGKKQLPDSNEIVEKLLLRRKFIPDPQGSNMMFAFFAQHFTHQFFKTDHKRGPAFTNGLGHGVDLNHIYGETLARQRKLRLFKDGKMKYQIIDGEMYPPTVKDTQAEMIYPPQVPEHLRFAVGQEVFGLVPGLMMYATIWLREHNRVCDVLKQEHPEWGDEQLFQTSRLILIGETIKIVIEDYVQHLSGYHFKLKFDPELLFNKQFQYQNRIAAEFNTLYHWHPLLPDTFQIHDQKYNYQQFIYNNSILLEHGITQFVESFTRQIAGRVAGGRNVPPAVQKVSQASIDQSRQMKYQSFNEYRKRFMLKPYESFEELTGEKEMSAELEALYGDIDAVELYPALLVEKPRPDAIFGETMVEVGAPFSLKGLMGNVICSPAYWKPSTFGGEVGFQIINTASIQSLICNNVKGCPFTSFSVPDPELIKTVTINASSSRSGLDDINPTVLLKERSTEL
Experimental: (§1) Inhibitory activity against human COX-1and COX-2was assessed in COS cells which had been stably transfected with cDNA for human COX-1and human COX-2. 24Hours prior to experiment, COS cells were transferred from the 175 cm^2flasks in which they were grown, onto 24-well cell culture plates using the following procedure. The incubation medium (Dulbecco's modified eagles medium (DMEM) supplemented with heat-inactivated foetal calf serum (10% v/v), penicillin (100 IU/ml), streptomycin (100 μg/ml) and geneticin (600 μg/ml)) was removed from a flask of confluent cells (1flask at confluency contains approximately 1×10^7 cells). 10 ml of phosphate buffered saline (PBS) was added to the flask to wash the cells. Having discarded the PBS, cells were then rinsed in 10 ml trypsin for 20 seconds, after which the trypsin was removed and the flask placed in an incubator (37°) for 1-2 minutes until cells became detached from the flask. The flask was then removed from the incubator and cells resuspended in 10 ml of fresh incubation medium. The contents of the flask was transferred to a 250 ml sterile container and the volume of incubation medium subsequently made up to 100 ml. […] If more than 1 flask of cells were required, the cells from the individual flasks were combined before being dispensed into the 24-well plates.
(§2) Following the overnight incubation, the incubation medium was completely removed from the 24-well cell culture plates and replaced with 250 μl fresh DMEM (37° C.). The test compounds were made up to 250× the required test concentration in DMSO and were added to the wells in a volume of 1 μl. […] Plates were then incubated for a further 15 minutes, after which the incubation medium was removed from each well of the plates and stored at −20° C., prior to determination of prostaglandin E2(PGE2) levels using enzyme immunoassay. […] The selectivity ratio of inhibition of COX-1 versus COX-2 was calculated by comparing respective IC50 values.

human COX-1 = biological target: T2, human COX-1 (Homo sapiens, UniProt P23219); test: Inhibition of PGE2 release in COS cells stably transfected with human COX-1; format: cell-based; details: 30 μM arachidonic acid, PGE2 release by enzyme immunoassay
T2 construct: expressed in transfected cells
T2 sequence (P23219 24-599): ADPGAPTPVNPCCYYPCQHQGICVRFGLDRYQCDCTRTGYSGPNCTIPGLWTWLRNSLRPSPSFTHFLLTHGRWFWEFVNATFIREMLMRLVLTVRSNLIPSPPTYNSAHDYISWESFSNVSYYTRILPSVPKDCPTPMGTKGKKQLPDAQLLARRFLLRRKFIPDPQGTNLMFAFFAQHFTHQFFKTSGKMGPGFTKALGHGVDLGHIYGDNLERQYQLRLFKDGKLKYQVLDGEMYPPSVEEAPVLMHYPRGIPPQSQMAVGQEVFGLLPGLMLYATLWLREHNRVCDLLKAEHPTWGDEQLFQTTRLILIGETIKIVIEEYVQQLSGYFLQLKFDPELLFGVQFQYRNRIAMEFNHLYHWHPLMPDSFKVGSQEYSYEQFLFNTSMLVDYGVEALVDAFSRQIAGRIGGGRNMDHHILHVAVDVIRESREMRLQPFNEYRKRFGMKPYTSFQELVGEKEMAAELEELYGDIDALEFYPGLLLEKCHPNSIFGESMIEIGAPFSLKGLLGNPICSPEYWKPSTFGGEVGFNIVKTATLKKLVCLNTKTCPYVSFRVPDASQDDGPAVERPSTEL
Experimental: as §1, §2

Row | Compound | IC50 (human COX-2) [nM] | IC50 (human COX-1) [nM]
1 | CS(=O)(=O)c1ccc(-c2c(-c3ccc(F)cc3)nn3nc(OC(F)F)ccc23)cc1 [1(v), 6-Difluoromethoxy-2-(4-fluoro-phenyl)-3-(4-methanesulfonyl-phenyl)-pyrazolo[1,5-b]pyridazine] | 35 | > 100000
2 | COc1ccc(-c2nn3ncccc3c2-c2ccc(S(C)(=O)=O)cc2)cc1 [2(ii), 3-(4-Methanesulfonyl-phenyl)-2-(4-methoxy-phenyl)-pyrazolo[1,5-b]pyridazine] | < 10 | 
3 | CCOc1ccc(-c2nn3ncccc3c2-c2ccc(S(C)(=O)=O)cc2)cc1 [3(ii), 2-(4-Ethoxy-phenyl)-3-(4-methanesulfonyl-phenyl)-pyrazolo[1,5-b]pyridazine] |  | > 100000

Other lines, results leading:

Row | IC50 (human COX-2) [nM] | IC50 (human COX-1) [nM] | Compound
4 | 16 | > 55200 | CS(=O)(=O)c1ccc(-c2c(-c3cccc(F)c3)nn3nc(OC(F)F)ccc23)cc1 [7(viii), 6-Difluoromethoxy-2-(3-fluoro-phenyl)-3-(4-methanesulfonyl-phenyl)-pyrazolo[1,5-b]pyridazine]
5 | 21 | > 100000 | CS(=O)(=O)c1ccc(-c2c(-c3ccc(OC(F)F)cc3)nn3ncccc23)cc1 [Example 5, 2-(4-Difluoromethoxy-phenyl)-3-(4-methanesulfonyl-phenyl)-pyrazolo[1,5-b]pyridazine]
